# Earlier results, collected in patent US20170095445A1 (priority 2012, published 2017).
# Residues, ends and D or L forms follow the SMILES beside them.
# Test system: asthma induced by sensitization and challenge with ovalbumin
# Settings: mouse, in vivo
smiles,measurement,value
"CC(=O)NC(CS)C(=O)N1CCCC1C(=O)NC(CS)C(N)=O (stereo not drawn) [R-901, 1-(2-acetamido-3-mercaptopropanoyl)-N-(1-amino-3-mercapto-1-oxopropan-2-yl) pyrrolidine-2-carboxamide] (Ac-Cys-Pro-Cys-NH2; configuration not given here)",efficacy in murine model of asthma,efficacious
